Results reported in PubChem BioAssay (NCI).
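Five concentrations, 48 hours, 96-well plates. GI50 is the concentration that inhibits growth by half. TGI: total growth inhibition.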

Experiments:
Assay in all cases: DTP human tumour cell line panel, 48 h
HL-60(TB) leukemia = system: HL-60(TB) leukemia
MALME-3M melanoma = system: MALME-3M melanoma
HOP-62 NSCLC = system: HOP-62 NSCLC
NCI-H522 lung = system: NCI-H522 lung
EKVX NSCLC = system: EKVX NSCLC
T-47D breast = system: T-47D breast
SNB-19 CNS = system: SNB-19 CNS
MOLT-4 leukemia = system: MOLT-4 leukemia
OVCAR-4 ovarian = system: OVCAR-4 ovarian
NCI/ADR-RES ovarian = system: NCI/ADR-RES ovarian
OVCAR-3 ovarian = system: OVCAR-3 ovarian
CCRF-CEM leukemia = system: CCRF-CEM leukemia
MCF7 breast = system: MCF7 breast
K-562 leukemia = system: K-562 leukemia
TK-10 renal = system: TK-10 renal
UO-31 renal = system: UO-31 renal
SW-620 colon = system: SW-620 colon
HOP-92 NSCLC = system: HOP-92 NSCLC
SF-295 CNS = system: SF-295 CNS
NCI-H460 lung = system: NCI-H460 lung
SN12C renal = system: SN12C renal
HS 578T breast = system: HS 578T breast
786-0 renal = system: 786-0 renal
HCT-116 colon = system: HCT-116 colon
COLO 205 colon = system: COLO 205 colon
SF-268 CNS = system: SF-268 CNS
UACC-62 melanoma = system: UACC-62 melanoma
PC-3 prostate = system: PC-3 prostate
M14 melanoma = system: M14 melanoma
BT-549 breast = system: BT-549 breast
UACC-257 melanoma = system: UACC-257 melanoma
IGROV1 ovarian = system: IGROV1 ovarian
SK-MEL-2 melanoma = system: SK-MEL-2 melanoma
CAKI-1 renal = system: CAKI-1 renal
MDA-MB-231 breast = system: MDA-MB-231 breast
MDA-MB-435 = system: MDA-MB-435
A549 NSCLC = system: A549 NSCLC
DU-145 prostate = system: DU-145 prostate
NCI-H23 lung = system: NCI-H23 lung
OVCAR-5 ovarian = system: OVCAR-5 ovarian
HCT-15 colon = system: HCT-15 colon
HT29 colon = system: HT29 colon
KM12 colon = system: KM12 colon
U251 CNS = system: U251 CNS
SK-MEL-28 melanoma = system: SK-MEL-28 melanoma
NCI-H226 lung = system: NCI-H226 lung
LOX IMVI melanoma = system: LOX IMVI melanoma
RPMI-8226 leukemia = system: RPMI-8226 leukemia
SK-MEL-5 melanoma = system: SK-MEL-5 melanoma
OVCAR-8 ovarian = system: OVCAR-8 ovarian
SNB-75 CNS = system: SNB-75 CNS
SF-539 CNS = system: SF-539 CNS
SK-OV-3 ovarian = system: SK-OV-3 ovarian
A498 renal = system: A498 renal
RXF 393 renal = system: RXF 393 renal
HCC-2998 colon = system: HCC-2998 colon
ACHN renal = system: ACHN renal

## CC(C)=NN/C(=N\S(=O)(=O)c1cc2ccccc2s1)Nc1ccc(Cl)cc1
HL-60(TB) leukemia
  TGI: > 100 µM
MALME-3M melanoma
  TGI: > 100 µM
HOP-62 NSCLC
  TGI: > 100 µM
NCI-H522 lung
  TGI: > 100 µM
EKVX NSCLC
  TGI: 60.2 µM
T-47D breast
  TGI: 76.3 µM
SNB-19 CNS
  TGI: > 100 µM
MOLT-4 leukemia
  TGI: > 100 µM
OVCAR-4 ovarian
  TGI: > 100 µM
NCI/ADR-RES ovarian
  TGI: > 100 µM
OVCAR-3 ovarian
  TGI: > 100 µM
CCRF-CEM leukemia
  TGI: > 100 µM
MCF7 breast
  TGI: > 100 µM
K-562 leukemia
  TGI: > 100 µM
TK-10 renal
  TGI: > 100 µM
UO-31 renal
  TGI: > 100 µM
SW-620 colon
  TGI: > 100 µM
HOP-92 NSCLC
  TGI: > 100 µM
SF-295 CNS
  TGI: > 100 µM
NCI-H460 lung
  TGI: > 100 µM
SN12C renal
  TGI: > 100 µM
HS 578T breast
  TGI: > 100 µM
786-0 renal
  TGI: > 100 µM
HCT-116 colon
  TGI: > 100 µM
COLO 205 colon
  TGI: > 100 µM
SF-268 CNS
  TGI: > 100 µM
UACC-62 melanoma
  TGI: > 100 µM
PC-3 prostate
  TGI: > 100 µM
M14 melanoma
  TGI: > 100 µM
BT-549 breast
  TGI: > 100 µM
UACC-257 melanoma
  TGI: > 100 µM
IGROV1 ovarian
  TGI: > 100 µM
SK-MEL-2 melanoma
  TGI: > 100 µM
CAKI-1 renal
  TGI: > 100 µM
MDA-MB-231 breast
  TGI: > 100 µM
MDA-MB-435
  TGI: > 100 µM
A549 NSCLC
  TGI: > 100 µM
DU-145 prostate
  TGI: > 100 µM
NCI-H23 lung
  TGI: > 100 µM
OVCAR-5 ovarian
  TGI: > 100 µM
HCT-15 colon
  TGI: > 100 µM
HT29 colon
  TGI: > 100 µM
KM12 colon
  TGI: > 100 µM
U251 CNS
  TGI: > 100 µM
SK-MEL-28 melanoma
  TGI: > 100 µM
NCI-H226 lung
  TGI: > 100 µM
LOX IMVI melanoma
  TGI: > 100 µM
RPMI-8226 leukemia
  TGI: > 100 µM
SK-MEL-5 melanoma
  TGI: > 100 µM
OVCAR-8 ovarian
  TGI: > 100 µM

## O=C(O)[C@@H]1CCCN1Cc1cc2cc3c(cc2c2cc(OCc4ccccc4)ccc12)OCO3
MALME-3M melanoma
  GI50: 25.8 µM
  TGI: 60.1 µM
HOP-62 NSCLC
  GI50: 51.2 µM
  TGI: > 100 µM
NCI-H522 lung
  GI50: 23.7 µM
  TGI: 58.3 µM
EKVX NSCLC
  GI50: 21.8 µM
  TGI: 61.7 µM
SNB-75 CNS
  GI50: 21.1 µM
  TGI: 52.4 µM
T-47D breast
  GI50: 19.2 µM
  TGI: 54 µM
SNB-19 CNS
  GI50: 18.5 µM
  TGI: 48.3 µM
MOLT-4 leukemia
  GI50: 30.7 µM
  TGI: > 100 µM
NCI/ADR-RES ovarian
  GI50: 43.9 µM
  TGI: > 100 µM
OVCAR-3 ovarian
  GI50: 17.5 µM
  TGI: 43.6 µM
CCRF-CEM leukemia
  GI50: 23.2 µM
  TGI: > 100 µM
MCF7 breast
  GI50: 17.2 µM
  TGI: 43.9 µM
K-562 leukemia
  GI50: 28.7 µM
  TGI: > 100 µM
TK-10 renal
  GI50: 27.8 µM
  TGI: 77.7 µM
UO-31 renal
  GI50: 24.3 µM
  TGI: > 100 µM
SW-620 colon
  GI50: 14.1 µM
  TGI: 54.6 µM
HOP-92 NSCLC
  GI50: 21.9 µM
  TGI: 63.3 µM
SF-295 CNS
  GI50: 18.3 µM
  TGI: 45 µM
NCI-H460 lung
  GI50: 17.8 µM
  TGI: 44.6 µM
SN12C renal
  GI50: 23.1 µM
  TGI: 72.7 µM
HS 578T breast
  GI50: 17.6 µM
  TGI: 49.2 µM
SF-539 CNS
  GI50: 25.1 µM
  TGI: 60.1 µM
786-0 renal
  GI50: 55 µM
  TGI: > 100 µM
HCT-116 colon
  GI50: 37.6 µM
  TGI: > 100 µM
COLO 205 colon
  GI50: 14.7 µM
  TGI: 30.6 µM
SF-268 CNS
  GI50: 24.4 µM
  TGI: 55.9 µM
SK-OV-3 ovarian
  GI50: 32.4 µM
  TGI: 81.3 µM
UACC-62 melanoma
  GI50: 16.8 µM
  TGI: 33.2 µM
PC-3 prostate
  GI50: 29.8 µM
  TGI: > 100 µM
M14 melanoma
  GI50: 46.1 µM
  TGI: > 100 µM
BT-549 breast
  GI50: 22.6 µM
  TGI: 52.9 µM
UACC-257 melanoma
  GI50: 28.9 µM
  TGI: 71.8 µM
IGROV1 ovarian
  GI50: 24.1 µM
  TGI: 62.6 µM
SK-MEL-2 melanoma
  GI50: 20.1 µM
  TGI: 45.5 µM
CAKI-1 renal
  GI50: 20.3 µM
  TGI: 53.6 µM
A498 renal
  GI50: 13.5 µM
  TGI: 45.3 µM
RXF 393 renal
  GI50: 20.6 µM
  TGI: 42.6 µM
MDA-MB-231 breast
  GI50: 15 µM
  TGI: 42.6 µM
MDA-MB-435
  GI50: 23.4 µM
  TGI: 58.4 µM
A549 NSCLC
  GI50: 27.1 µM
  TGI: > 100 µM
DU-145 prostate
  GI50: 19.4 µM
  TGI: 65.9 µM
NCI-H23 lung
  GI50: 38.4 µM
  TGI: > 100 µM
OVCAR-5 ovarian
  GI50: 21.4 µM
  TGI: 54.9 µM
HCT-15 colon
  GI50: 28.5 µM
  TGI: > 100 µM
HCC-2998 colon
  GI50: 36.4 µM
  TGI: > 100 µM
HT29 colon
  GI50: 18 µM
  TGI: 37.2 µM
KM12 colon
  GI50: 31.8 µM
  TGI: > 100 µM
ACHN renal
  GI50: 26.1 µM
  TGI: 86.6 µM
U251 CNS
  GI50: 30.1 µM
  TGI: > 100 µM
SK-MEL-28 melanoma
  GI50: 19.4 µM
  TGI: 43.9 µM
NCI-H226 lung
  GI50: 21.8 µM
  TGI: 50.5 µM
LOX IMVI melanoma
  GI50: 17.1 µM
  TGI: 31.7 µM
RPMI-8226 leukemia
  GI50: 17 µM
  TGI: 60.9 µM
SK-MEL-5 melanoma
  GI50: 14.7 µM
  TGI: 31.6 µM
OVCAR-8 ovarian
  GI50: 30.8 µM
  TGI: > 100 µM
